Results on 8 molecules are retold here after US20140005188A1, “PYRIDO[3,4-B]PYRAZINE DERIVATIVES AS SYK INHIBITORS” (GLAXO GROUP LIMITED, priority 2011, published 2014).

For series [1] the following is noted: cited from earlier work.
Series [2] deals with T1, SYK (Homo sapiens, UniProt P43405).
T1 construct: The cell pellet was then lysed in ice-cold lysis buffer containing 1% triton-x-100; endogenous in cells; host or cells: Ramos B cells (human Burkitt's lymphoma, clone 296.4C10, ATCC), stimulated with anti-IgM antibody, clarified Triton X-100 lysate
The series is described as follows: biochemical. To be noted: SYK lysate from anti-IgM stimulated Ramos B cells, Y7 Sox peptide 5 μM, ATP 35 μM; read-out: average plC50. As for the experimental part: 1. Basic SYK Enzyme Activity
3 μl of SYK lysate diluted 16-fold in assay buffer (20 mM TRIS pH 7.4, 0.01% BSA, 0.1% Pluronic F-68) was added to wells containing 0.1 μl of various concentrations of compound or DMSO vehicle (1.7% final) in a Greiner low volume 384 well black plate. […]
i. Preparation of Ramos Cell Lysates
Cells were grown in Corning Cellstacks (6360 cm^2) in 1 litre volume and viability and cell density were monitored daily. Cells were maintained at <1.5×10e6/ml and >92% viability ii. Stimulation of Ramos Cells with Anti-IgM Ab to Produce Syk & Preparation of Lysates Cells were stimulated at 20×10^6 cells/ml using 15 ug/ml (final concentration) anti-IgM antibody. Following harvest (as described above), a total of 4×10^9 cells were resuspended in 180 mls pre-warmed (37° C.) DPBS in a Corning 500 ml centrifuge bottle. 20 mls anti-IgM antibody at 150 ug/ml were added to each 500 ml centrifuge bottle. (working stock made up in DPBS pre-warmed to 37° C.). Cells were incubated for exactly 5 minutes at 37° C. following the addition of anti IgM antibody. Following 5 minutes stimulation, 300 mls ice-cold DPBS were added to each bottle to stop the stimulation (temperature drops to ˜12 deg C.) then cells were centrifuged at 2000 rpm (Sorvall Legend RT+centrifuge—pre-chilled to 4 deg C.). Cells were washed by resuspension in ice-cold DPBS and centrifugation as above. The cell pellet was then lysed in ice-cold lysis buffer containing 1% triton-x-100 at a ratio of 150 ul/1×10^7 cells (i.e. […] lysis buffer). Following the addition of lysis buffer, the cells were pipetted up & down & kept on ice for 15 minutes. The clarified lysate was then obtained by centrifugation (Sorvall Evolution RC (SLA-1500 rotor, ˜20,000 g (˜14,500 rpm), 45 min, 4° C.).
Lysate was aliquoted, snap-frozen on dry-ice & stored at −80° C. prior to assay.

Series [3] deals with B lymphoma (BKS-2). To be noted: murine BKS-2 B lymphoma model; cited from earlier work.

Counter-ions that a name gives are not always drawn. Where only a bound is given, the exact number is not on record here.

Turning to `COc1cc(Nc2ncc(F)c(Nc3ccc4c(n3)N(COP(=O)(O)O)C(=O)C(C)(C)O4)n2)cc(OC)c1OC` [Example R788, fostamatinib disodium], the therapeutic benefit entry in series [1] (patients with DLBCL and CLL/SLL) was “therapeutic benefit”. For the same molecule, the tolerability result in series [1] (patients with relapsed or refractory B-Cell NHL) was “well-tolerated”.

`O=C1CN(c2cc3nccnc3c(NC[C@H]3CCCNC3)n2)CCN1` [Example 30, 4-(5-{[(3S)-3-piperidinylmethyl]amino}pyrido[3,4-b]pyrazin-7-yl)-2-piperazinone, hydrochloride]: the IC50 in series [2] is ≤ 10 µM.

Consider `CC1CCC(CNc2nc(-c3cnn(C)c3)cc3nccnc23)CN1` (single isomer, unassigned) [Example 176, 7-(1-methyl-1H-pyrazol-4-yl)-N-[(6-methylpiperidin-3-yl)methyl]pyrido[3,4-b]pyrazin-5-amine hydrochloride, single unknown enantiomer], for which the IC50 in series [2] is ≤ 10 µM.

Turning to `Cc1noc(C)c1-c1cc2nccnc2c(NCC2(F)CCCNC2)n1` (stereo not drawn) [Example 157, 7-(dimethyl-1,2-oxazol-4-yl)-N-[(3-fluoropiperidin-3-yl)methyl]pyrido[3,4-b]pyrazin-5-amine hydrochloride], in series [2], the IC50 is ≤ 10 µM.

Regarding `COc1cc(/C=C/C(=O)CC(=O)/C=C/c2ccc(O)c(OC)c2)ccc1O` [curcumin], the “tumour burden as measured by the total splenocyte number” value in series [3] was “significant reduction”.

For `Cn1nccc1-c1cc2nccnc2c(NC[C@@H]2CNCCO2)n1` [Example 92, 7-(1-methyl-1H-pyrazol-5-yl)-N-[(2S)-morpholin-2-ylmethyl]pyrido[3,4-b]pyrazin-5-amine hydrochloride], the IC50 in series [2] was ≤ 10 µM.

Turning to `COc1cncc(-c2cc3nccnc3c(NCC3(F)CCCNC3)n2)c1` (stereo not drawn) [Example 128, N-[(3-fluoropiperidin-3-yl)methyl]-7-(5-methoxypyridin-3-yl)pyrido[3,4-b]pyrazin-5-amine], the IC50 in series [2] is ≤ 10 µM.

Turning to `Fc1ccc(-c2cc3nccnc3c(NCC3(F)CCCNC3)n2)c(F)c1` (stereo not drawn) [Example 166, 7-(2,4-difluorophenyl)-N-[(3-fluoropiperidin-3-yl)methyl]pyrido[3,4-b]pyrazin-5-amine], the IC50 in series [2] is ≤ 10 µM.
